Source: publication PMC9516332 (Frontiers in Oncology, 2022)
pIC50: −log10 of the molar value. Where two headings read alike, the source gives them in different places.

Tests used:
AP-1060 (ETV6-NTRK3) = experiment: Cell viability assay; details: read-out: IC50 in cell proliferation assay
134 cancer cell lines = experiment: Cell viability assay (ATPlite, 72 hours), IC50 on cancer cell line panel

SMILES: CCc1cc2c(cc1N1CCC(N3CCOCC3)CC1)C(C)(C)c1[nH]c3cc(C#N)ccc3c1C2=O [alectinib]
- pIC50 (AP-1060 (ETV6-NTRK3)): 5.95
- pIC50 (134 cancer cell lines; HEC-6, read-out: IC50 in cell proliferation assay): < 5.00
- pIC50 (134 cancer cell lines; Homo sapiens, 769-P, read-out: IC50 in cell proliferation assay): 5.04
- pIC50 (134 cancer cell lines; Homo sapiens, 786-0, read-out: IC50 in cell proliferation assay): < 5.00
- pIC50 (134 cancer cell lines; Homo sapiens, A 172, read-out: IC50 in cell proliferation assay): < 5.00
- pIC50 (134 cancer cell lines; Homo sapiens, A204, read-out: IC50 in cell proliferation assay): < 5.00
- pIC50 (134 cancer cell lines; Homo sapiens, A498, read-out: IC50 in cell proliferation assay): < 5.00
- pIC50 (134 cancer cell lines; Homo sapiens, A549, read-out: IC50 in cell proliferation assay): < 5.00
- pIC50 (134 cancer cell lines; Homo sapiens, A704, read-out: IC50 in cell proliferation assay): < 5.00
- pIC50 (134 cancer cell lines; Homo sapiens, A-375, read-out: IC50 in cell proliferation assay): < 5.00
- pIC50 (134 cancer cell lines; Homo sapiens, A-427, read-out: IC50 in cell proliferation assay): < 5.00
- pIC50 (134 cancer cell lines; Homo sapiens, ACHN, read-out: IC50 in cell proliferation assay): 5.45
- pIC50 (134 cancer cell lines; Homo sapiens, AN3-CA, read-out: IC50 in cell proliferation assay): < 5.00
- pIC50 (134 cancer cell lines; Homo sapiens, ASPC1, read-out: IC50 in cell proliferation assay): < 5.00
- pIC50 (134 cancer cell lines; Homo sapiens, AU565, read-out: IC50 in cell proliferation assay): < 5.00
- pIC50 (134 cancer cell lines; Homo sapiens, BT-20, read-out: IC50 in cell proliferation assay): < 5.00
- pIC50 (134 cancer cell lines; Homo sapiens, BT-474, read-out: IC50 in cell proliferation assay): < 5.00
- pIC50 (134 cancer cell lines; Homo sapiens, BT-549, read-out: IC50 in cell proliferation assay): 5.57
- pIC50 (134 cancer cell lines; Homo sapiens, BXPC-3, read-out: IC50 in cell proliferation assay): < 5.00
- pIC50 (134 cancer cell lines; Homo sapiens, C-33-A, read-out: IC50 in cell proliferation assay): 5.70
- pIC50 (134 cancer cell lines; Homo sapiens, CAL-27, read-out: IC50 in cell proliferation assay): 5.93
- pIC50 (134 cancer cell lines; Homo sapiens, CCF-STTG1, read-out: IC50 in cell proliferation assay): 5.52
- pIC50 (134 cancer cell lines; Homo sapiens, CCRF-CEM, read-out: IC50 in cell proliferation assay): < 5.00
- pIC50 (134 cancer cell lines; Homo sapiens, COLO 205, read-out: IC50 in cell proliferation assay): < 5.00
- pIC50 (134 cancer cell lines; Homo sapiens, COLO-829, read-out: IC50 in cell proliferation assay): < 5.00
- pIC50 (134 cancer cell lines; Homo sapiens, DLD-1, read-out: IC50 in cell proliferation assay): < 5.00
- pIC50 (134 cancer cell lines; Homo sapiens, DU-145, read-out: IC50 in cell proliferation assay): < 5.00
- pIC50 (134 cancer cell lines; Homo sapiens, DU-4475, read-out: IC50 in cell proliferation assay): < 5.00
- pIC50 (134 cancer cell lines; Homo sapiens, Daoy, read-out: IC50 in cell proliferation assay): 5.46
- pIC50 (134 cancer cell lines; Homo sapiens, DoTc2-4510, read-out: IC50 in cell proliferation assay): 6.32
- pIC50 (134 cancer cell lines; Homo sapiens, EOL1, read-out: IC50 in cell proliferation assay): 6.71
- pIC50 (134 cancer cell lines; Homo sapiens, FaDu, read-out: IC50 in cell proliferation assay): < 5.00
- pIC50 (134 cancer cell lines; Homo sapiens, G-361, read-out: IC50 in cell proliferation assay): < 5.00
- pIC50 (134 cancer cell lines; Homo sapiens, HCC827, read-out: IC50 in cell proliferation assay): 5.80
- pIC50 (134 cancer cell lines; Homo sapiens, HCC4006, read-out: IC50 in cell proliferation assay): 5.88
- pIC50 (134 cancer cell lines; Homo sapiens, HCT-15, read-out: IC50 in cell proliferation assay): < 5.00
- pIC50 (134 cancer cell lines; Homo sapiens, HCT-116, read-out: IC50 in cell proliferation assay): < 5.00
- pIC50 (134 cancer cell lines; Homo sapiens, HEC-1, read-out: IC50 in cell proliferation assay): 5.88
- pIC50 (134 cancer cell lines; Homo sapiens, HEC-1B, read-out: IC50 in cell proliferation assay): < 5.00
- pIC50 (134 cancer cell lines; Homo sapiens, HL-60, read-out: IC50 in cell proliferation assay): < 5.00
- pIC50 (134 cancer cell lines; Homo sapiens, HT, read-out: IC50 in cell proliferation assay): < 5.00
- pIC50 (134 cancer cell lines; Homo sapiens, HT-1080, read-out: IC50 in cell proliferation assay): 5.12
- pIC50 (134 cancer cell lines; Homo sapiens, Hs746T, read-out: IC50 in cell proliferation assay): < 5.00
- pIC50 (134 cancer cell lines; Homo sapiens, Hs-578T, read-out: IC50 in cell proliferation assay): 5.31
- pIC50 (134 cancer cell lines; Homo sapiens, HuTu80, read-out: IC50 in cell proliferation assay): < 5.00
- pIC50 (134 cancer cell lines; Homo sapiens, J82, read-out: IC50 in cell proliferation assay): < 5.00
- pIC50 (134 cancer cell lines; Homo sapiens, Jurkat E6.1, read-out: IC50 in cell proliferation assay): < 5.00
- pIC50 (134 cancer cell lines; Homo sapiens, K562, read-out: IC50 in cell proliferation assay): < 5.00
- pIC50 (134 cancer cell lines; Homo sapiens, KATO III, read-out: IC50 in cell proliferation assay): < 5.00
- pIC50 (134 cancer cell lines; Homo sapiens, KG-1, read-out: IC50 in cell proliferation assay): 6.35
- pIC50 (134 cancer cell lines; Homo sapiens, KLE, read-out: IC50 in cell proliferation assay): < 5.00
- pIC50 (134 cancer cell lines; Homo sapiens, KMS-11, read-out: IC50 in cell proliferation assay): < 5.00
- pIC50 (134 cancer cell lines; Homo sapiens, KU812, read-out: IC50 in cell proliferation assay): < 5.00
- pIC50 (134 cancer cell lines; Homo sapiens, Kasumi 1, read-out: IC50 in cell proliferation assay): 5.82
- pIC50 (134 cancer cell lines; Homo sapiens, LC-2-ad, read-out: IC50 in cell proliferation assay): 5.95
- pIC50 (134 cancer cell lines; Homo sapiens, LNCaP-Clone-FGC, read-out: IC50 in cell proliferation assay): < 5.00
- pIC50 (134 cancer cell lines; Homo sapiens, LS174T, read-out: IC50 in cell proliferation assay): < 5.00
- pIC50 (134 cancer cell lines; Homo sapiens, LS-411N, read-out: IC50 in cell proliferation assay): < 5.00
- pIC50 (134 cancer cell lines; Homo sapiens, LoVo, read-out: IC50 in cell proliferation assay): < 5.00
- pIC50 (134 cancer cell lines; Homo sapiens, MCF7, read-out: IC50 in cell proliferation assay): < 5.00
- pIC50 (134 cancer cell lines; Homo sapiens, MDA-MB-231, read-out: IC50 in cell proliferation assay): < 5.00
- pIC50 (134 cancer cell lines; Homo sapiens, MDA-MB-453, read-out: IC50 in cell proliferation assay): < 5.00
- pIC50 (134 cancer cell lines; Homo sapiens, MDA-MB-468, read-out: IC50 in cell proliferation assay): < 5.00
- pIC50 (134 cancer cell lines; Homo sapiens, MG-63, read-out: IC50 in cell proliferation assay): < 5.00
- pIC50 (134 cancer cell lines; Homo sapiens, MIA PaCa-2, read-out: IC50 in cell proliferation assay): < 5.00
- pIC50 (134 cancer cell lines; Homo sapiens, MKN-45, read-out: IC50 in cell proliferation assay): < 5.00
- pIC50 (134 cancer cell lines; Homo sapiens, MOLM-13, read-out: IC50 in cell proliferation assay): 6.00
- pIC50 (134 cancer cell lines; Homo sapiens, MOLT-4, read-out: IC50 in cell proliferation assay): < 5.00
- pIC50 (134 cancer cell lines; Homo sapiens, MV4-11, read-out: IC50 in cell proliferation assay): 5.97
- pIC50 (134 cancer cell lines; Homo sapiens, MeWo, read-out: IC50 in cell proliferation assay): < 5.00
- pIC50 (134 cancer cell lines; Homo sapiens, NCCIT, read-out: IC50 in cell proliferation assay): < 5.50
- pIC50 (134 cancer cell lines; Homo sapiens, NCI-H82, read-out: IC50 in cell proliferation assay): < 5.00
- pIC50 (134 cancer cell lines; Homo sapiens, NCI-H460, read-out: IC50 in cell proliferation assay): < 5.00
- pIC50 (134 cancer cell lines; Homo sapiens, NCI-H661, read-out: IC50 in cell proliferation assay): < 5.00
- pIC50 (134 cancer cell lines; Homo sapiens, NCI-H716, read-out: IC50 in cell proliferation assay): 5.60
- pIC50 (134 cancer cell lines; Homo sapiens, NCI-H1650, read-out: IC50 in cell proliferation assay): 5.78
- pIC50 (134 cancer cell lines; Homo sapiens, NCI-H1975, read-out: IC50 in cell proliferation assay): 6.13
- pIC50 (134 cancer cell lines; Homo sapiens, NCI-H2228, read-out: IC50 in cell proliferation assay): 7.41
- pIC50 (134 cancer cell lines; Homo sapiens, OVCAR-3, read-out: IC50 in cell proliferation assay): < 5.00
- pIC50 (134 cancer cell lines; Homo sapiens, PFSK-1, read-out: IC50 in cell proliferation assay): 5.46
- pIC50 (134 cancer cell lines; Homo sapiens, RL95-2, read-out: IC50 in cell proliferation assay): 5.88
- pIC50 (134 cancer cell lines; Homo sapiens, RPMI-7951, read-out: IC50 in cell proliferation assay): < 5.00
- pIC50 (134 cancer cell lines; Homo sapiens, RS4-11, read-out: IC50 in cell proliferation assay): < 5.00
- pIC50 (134 cancer cell lines; Homo sapiens, Rec1, read-out: IC50 in cell proliferation assay): 5.91
- pIC50 (134 cancer cell lines; Homo sapiens, SHP77, read-out: IC50 in cell proliferation assay): < 5.00
- pIC50 (134 cancer cell lines; Homo sapiens, SK-BR-3, read-out: IC50 in cell proliferation assay): < 5.00
- pIC50 (134 cancer cell lines; Homo sapiens, SK-N-AS, read-out: IC50 in cell proliferation assay): 5.11
- pIC50 (134 cancer cell lines; Homo sapiens, SK-N-FI, read-out: IC50 in cell proliferation assay): 5.13
- pIC50 (134 cancer cell lines; Homo sapiens, SK-N-MC, read-out: IC50 in cell proliferation assay): < 5.00
- pIC50 (134 cancer cell lines; Homo sapiens, SK-N-SH, read-out: IC50 in cell proliferation assay): 5.61
- pIC50 (134 cancer cell lines; Homo sapiens, SNU-5, read-out: IC50 in cell proliferation assay): < 5.00
- pIC50 (134 cancer cell lines; Homo sapiens, SNU-16, read-out: IC50 in cell proliferation assay): < 5.00
- pIC50 (134 cancer cell lines; Homo sapiens, SNU-C2B, read-out: IC50 in cell proliferation assay): < 5.00
- pIC50 (134 cancer cell lines; Homo sapiens, SU-DHL-1, read-out: IC50 in cell proliferation assay): 6.36
- pIC50 (134 cancer cell lines; Homo sapiens, SU-DHL-6, read-out: IC50 in cell proliferation assay): < 5.00
- pIC50 (134 cancer cell lines; Homo sapiens, SUP-T1, read-out: IC50 in cell proliferation assay): < 5.00
- pIC50 (134 cancer cell lines; Homo sapiens, SW48, read-out: IC50 in cell proliferation assay): < 5.00
- pIC50 (134 cancer cell lines; Homo sapiens, SW480, read-out: IC50 in cell proliferation assay): < 5.00
- pIC50 (134 cancer cell lines; Homo sapiens, SW626, read-out: IC50 in cell proliferation assay): < 5.00
- pIC50 (134 cancer cell lines; Homo sapiens, SW780, read-out: IC50 in cell proliferation assay): 5.78
- pIC50 (134 cancer cell lines; Homo sapiens, SW837, read-out: IC50 in cell proliferation assay): < 5.00
- pIC50 (134 cancer cell lines; Homo sapiens, SW872, read-out: IC50 in cell proliferation assay): < 5.00
- pIC50 (134 cancer cell lines; Homo sapiens, SW900, read-out: IC50 in cell proliferation assay): < 5.00
- pIC50 (134 cancer cell lines; Homo sapiens, SW948, read-out: IC50 in cell proliferation assay): < 5.00
- pIC50 (134 cancer cell lines; Homo sapiens, SW982, read-out: IC50 in cell proliferation assay): < 5.00
- pIC50 (134 cancer cell lines; Homo sapiens, SW-620, read-out: IC50 in cell proliferation assay): < 5.00
- pIC50 (134 cancer cell lines; Homo sapiens, T98G, read-out: IC50 in cell proliferation assay): < 5.00
- pIC50 (134 cancer cell lines; Homo sapiens, TCC-SUP, read-out: IC50 in cell proliferation assay): 5.43
- pIC50 (134 cancer cell lines; Homo sapiens, THP-1, read-out: IC50 in cell proliferation assay): < 5.00
- pIC50 (134 cancer cell lines; Homo sapiens, U2OS, read-out: IC50 in cell proliferation assay): 5.42
- pIC50 (134 cancer cell lines; Homo sapiens, U-87 MG, read-out: IC50 in cell proliferation assay): 5.51
- pIC50 (134 cancer cell lines; Homo sapiens, U-118-MG, read-out: IC50 in cell proliferation assay): 5.48
- pIC50 (134 cancer cell lines; Homo sapiens, UMUC3, read-out: IC50 in cell proliferation assay): 5.48
- pIC50 (134 cancer cell lines; Hs766T, read-out: IC50 in cell proliferation assay): < 5.00
- pIC50 (134 cancer cell lines; L-82, read-out: IC50 in cell proliferation assay): 7.43
- pIC50 (134 cancer cell lines; Rh30, read-out: IC50 in cell proliferation assay): < 5.00
